Several values for one entry are separate records, joined by “and”; a condition that tells them apart may be missing. Equal values may be shown once.

One series deals with PC3 (prostate cell line). Description: MTT cytotoxicity assay, PC3. The conditions noted are these: Homo sapiens, 100 μg ml^−1, 48 hours, MTT, read-out: (%) Mortality PC3. It is filed as cell-based.
In a further series the test system is A549 (lung carcinoma). Briefly: MTT cytotoxicity assay, A549. The following applies: Homo sapiens, A549, MTT; for cytotoxicity at 100 µg/mL: 100 μg ml^−1, 48 hours, read-out: (%) Mortality A549. It is filed as cell-based. A general note: Tetrazolium dyes change colour on reduction, which living cells bring about.
Series [1] deals with PACA2 (pancreatic cancer cell line). Briefly: MTT cytotoxicity assay, PACA2. It is filed as cell-based. The conditions noted are these: Homo sapiens, PaCa-2; 100 μg ml^−1, 48 hours, MTT; read-out: (%) Mortality PACA2.
Description: (§1) Using specific human cancer cell lines, the anti-proliferative effectiveness of compounds 7a–j was evaluated in an in vitro assay. The anti-cancer activity of these compounds (7a–j) on various cancer cell lines, including PC3 (Prostate cell line), A549 (Lung carcinoma), PACA2 (Pancreatic cancer cell line) and BJ1 (normal skin fibroblast), was investigated in this study using the 3-(4,5-dimethylthiazol-2-yl)-2,5-diphenyltetrazolium bromide (MTT) test. Doxorubicin (Dox) was the standard medication used as a positive control.
(§2) All incubations were performed at 37 °C in a 5% CO2 incubator with a 95% humidified environment (Sheldon, TC2323; Cornelius, OR, USA). 96-well micro titer polypropylene plates were seeded with cells at a density of 10^4 cells per well in complete DMEM media, and the cells were allowed to adhere for 24 hours. After the media was aspirated, the tested compounds were added to the cells in a single dose of 100 μg ml^−1 in DMSO. Each well received 40 μl of MTT salt (2.5 g ml^−1) following a 48 hour incubation period. 200 μl of 10% sodium dodecyl sulfate (SDS) was added to each well after the reaction ended, and any formazan crystals that could have been produced were dissolved by two hours of incubator heating to 37 °C. The amount of formazan product was measured at 595 nm using a microplate reader (Bio-Rad Laboratories, model 3350, California, USA) with a reference wavelength of 690 nm, serving as a backdrop. Rather than the drugs under investigation, the medium was applied to the untreated cells (negative control). The examined compounds were dissolved in dimethylsulfoxide (DMSO), and the final concentration in the cells was less than 0.2%. For each compound and the control, the solvent concentration was the same.
The subject of series [2] is BJ1 (normal skin fibroblast). The following applies: 100 μg ml^−1, 48 hours, MTT. How it is done: Using specific human cancer cell lines, the anti-proliferative effectiveness of compounds 7a–j was evaluated in an in vitro assay. The anti-cancer activity of these compounds (7a–j) on various cancer cell lines, including PC3 (Prostate cell line), A549 (Lung carcinoma), PACA2 (Pancreatic cancer cell line) and BJ1 (normal skin fibroblast), was investigated in this study using the 3-(4,5-dimethylthiazol-2-yl)-2,5-diphenyltetrazolium bromide (MTT) test.
In the initial screening trial, a single dosage concentration of 100 μg ml^−1 was applied for 48 hours. The cytotoxicity of the treated cells was determined by calculating the cell death percentage (% mortality) as a percentage of untreated cells (Table 2).
Cell viability was tested using the MTT assay, 3-(4,5-dimethylthiazol-2-yl)-2,5-diphenyl-tetrazolium bromide (Bio Basic Canada Inc. Toronto, Canada).[26] Under class II biosafety regulations, the procedures were carried out in a sterile laminar air flow cabinet (Baker, SG403INT; Sanford, ME, USA). Cell lines were obtained from the American type culture collection (ATCC) as a gift from Dr Stig Linder, Karonisca Institute, Sweden. All incubations were performed at 37 °C in a 5% CO2 incubator with a 95% humidified environment (Sheldon, TC2323; Cornelius, OR, USA). 96-well micro titer polypropylene plates were seeded with cells at a density of 10^4 cells per well in complete DMEM media, and the cells were allowed to adhere for 24 hours. After the media was aspirated, the tested compounds were added to the cells in a single dose of 100 μg ml^−1 in DMSO. Each well received 40 μl of MTT salt ([…]) following a 48 hour incubation period. 200 μl of 10% sodium dodecyl sulfate (SDS) was added to each well after the reaction ended, and any formazan crystals that could have been produced were dissolved by two hours of incubator heating to 37 °C. The amount of formazan product was measured at 595 nm using a microplate reader (Bio-Rad Laboratories, model 3350, California, USA) with a reference wavelength of 690 nm, serving as a backdrop. Rather than the drugs under investigation, the medium was applied to the untreated cells (negative control). The examined compounds were dissolved in dimethylsulfoxide (DMSO), and the final concentration in the cells was less than 0.2%. For each compound and the control, the solvent concentration was the same.

Description for A549 (lung carcinoma): as §1, §2
Description for PC3 (prostate cell line): as §1, §2

For the compound `CCc1nn(-c2ccc([N+](=O)[O-])cc2)c2nc(=O)c(C)nn12` [Compound 7b, 3-Ethyl-6-methyl-1-(4-nitrophenyl)-[1,2,4]triazolo[4,3-b][1,2,4]triazin-7(1H)-one], the results for the cytotoxicity at 100 µg/mL (with PC3 (prostate cell line); with A549 (lung carcinoma); in series [1]) were 24.5 ± 0.57%, 35.2 ± 1.22% and 3.6 ± 0.21%, respectively. Besides, in series [2], the “(%) Mortality BJ1 (cytotoxicity percentage on normal cells)” value came out at 4.2 ± 0.98%.

Take `CCCc1nn(-c2ccc([N+](=O)[O-])cc2)c2nc(=O)c(C)nn12` [Compound 7c, 6-Methyl-1-(4-nitrophenyl)-3-propyl-[1,2,4]triazolo[4,3-b][1,2,4]triazin-7(1H)-one]: the cytotoxicity at 100 µg/mL in the series with PC3 (prostate cell line) was 27.3 ± 1.2%; in the series with A549 (lung carcinoma), 22.9 ± 0.81%; in series [1], 10.5 ± 0.61%. For the same compound, the “(%) Mortality BJ1 (cytotoxicity percentage on normal cells)” value in series [2] was found to be 1.6 ± 0.38%.

`Cc1nn2c(C(C)C)nn(-c3ccc([N+](=O)[O-])cc3)c2nc1=O` [Compound 7d, 3-Isopropyl-6-methyl-1-(4-nitrophenyl)-[1,2,4]triazolo[4,3-b][1,2,4]triazin-7(1H)-one]: the cytotoxicity at 100 µg/mL in the series with PC3 (prostate cell line) was found to be 17.9 ± 0.38%; in the series on A549 (lung carcinoma) it was 33.3 ± 0.22%; in series [1] it was 11.5 ± 0.25%. In addition, the “(%) Mortality BJ1 (cytotoxicity percentage on normal cells)” value in series [2] turned out to be 36.2 ± 1.11%.

Take `Cc1nn2c(CC(C)C)nn(-c3ccc([N+](=O)[O-])cc3)c2nc1=O` [Compound 7e, 3-Isobutyl-6-methyl-1-(4-nitrophenyl)-[1,2,4]triazolo[4,3-b][1,2,4]triazin-7(1H)-one]: the cytotoxicity at 100 µg/mL with PC3 (prostate cell line) was found to be 35.1 ± 1.11%; with A549 (lung carcinoma) it was 86.3 ± 0.74%; in series [1], 8.6 ± 0.33%. In addition, inhibition in the series on A549 (lung carcinoma) (48 hour incubation) was half-maximal at 42.5 µM (IC50). In series [2], the “(%) Mortality BJ1 (cytotoxicity percentage on normal cells)” value is 6.4% and 6.4 ± 0.85%.

With `Cc1ccc(-c2nn(-c3ccccc3)c3nc(=O)c(C)nn23)cc1` [Compound 7f, 6-Methyl-1-phenyl-3-(p-tolyl)-[1,2,4]triazolo[4,3-b][1,2,4]triazin-7(1H)-one], the results for the cytotoxicity at 100 µg/mL (in the series on PC3 (prostate cell line); in the series with A549 (lung carcinoma); in series [1]) were 33.4 ± 1.18%, 69.1 ± 0.77% and 5.6 ± 0.11%, respectively. Further, the “(%) Mortality BJ1 (cytotoxicity percentage on normal cells)” value in series [2] was 3.2% and 3.2 ± 0.63%.

On to `Cc1nn2c(-c3ccc(Cl)cc3)nn(-c3ccccc3)c2nc1=O` [Compound 7h, 3-(4-Chlorophenyl)-6-methyl-1-phenyl-[1,2,4]triazolo[4,3-b][1,2,4]triazin-7(1H)-one], for which the cytotoxicity at 100 µg/mL in the series with PC3 (prostate cell line) was 24.2 ± 0.21%; in the series on A549 (lung carcinoma) it was 13.5 ± 0.33%; in series [1], 21.3 ± 0.98%. For the same compound, the “(%) Mortality BJ1 (cytotoxicity percentage on normal cells)” value in series [2] was found to be 9.6 ± 0.93%.

As to `Cc1nn2c(-c3ccco3)nn(-c3ccc([N+](=O)[O-])cc3)c2nc1=O` [Compound 7i, 3-(Furan-2-yl)-6-methyl-1-(4-nitrophenyl)-[1,2,4]triazolo[4,3-b][1,2,4]triazin-7(1H)-one], the cytotoxicity at 100 µg/mL with PC3 (prostate cell line) came to 18.4 ± 1.14%; with A549 (lung carcinoma), 14.2 ± 0.24%; in series [1], 9.6 ± 1.33%. Besides, the “(%) Mortality BJ1 (cytotoxicity percentage on normal cells)” value in series [2] was 2.9 ± 1.22%.

Regarding `Cc1nn2c(-c3cccs3)nn(-c3ccc([N+](=O)[O-])cc3)c2nc1=O` [Compound 7j, 6-Methyl-1-(4-nitrophenyl)-3-(thiophen-2-yl)-[1,2,4]triazolo[4,3-b][1,2,4]triazin-7(1H)-one], the cytotoxicity at 100 µg/mL with PC3 (prostate cell line) was found to be 15.9 ± 0.51%; in the series with A549 (lung carcinoma), 32.8 ± 0.54%; in series [1], 7.2 ± 0.88%. Also, in series [2], the “(%) Mortality BJ1 (cytotoxicity percentage on normal cells)” value is given as 3.8 ± 0.77%.
